From PubChem BioAssay (NCI) come the findings set out here.

Among the test systems are CCRF-CEM leukemia; HCT-116 colon; KM12 colon; NCI-H226 lung; NCI-H522 lung; SK-MEL-28 melanoma; SN12C renal; HOP-62 NSCLC.
Common to all, as to assay: NCI anticancer screen, dose series, 48 h

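Cells were grown in 96-well plates and exposed to each compound for 48 hours at five concentrations; endpoints were interpolated linearly between bracketing concentrations, or set to the highest concentration if not reached. Abbreviation: GI50, concentration required for 50% inhibition of growth. TGI is the concentration that stops growth completely.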

Take `COc1cc2oc3c(c(=O)c2c(O)c1/C=C/C(C)C)C(C=C(C)C)Oc1cc(O)ccc1-3` (centres undefined): the TGI turned out to be 30.4 µM in the assay with CCRF-CEM leukemia; 28.1 µM in the assay with HCT-116 colon; 34.5 µM in the assay on KM12 colon; 32.7 µM with NCI-H226 lung; 32.3 µM in the assay on NCI-H522 lung; 31.2 µM with SK-MEL-28 melanoma. In addition, in the assay on SN12C renal, the TGI was 30.4 µM.

For the compound `Cc1cccc2c3c(sc12)C(c1ccc(F)cc1)C(C#N)=C(N)O3` (centres undefined), the GI50 in the assay on CCRF-CEM leukemia was 0.0439 µM; in the assay on HCT-116 colon it was 0.052 µM; in the assay with HOP-62 NSCLC, 0.127 µM; in the assay with KM12 colon, 0.064 µM; with NCI-H226 lung, 0.239 µM; in the assay with NCI-H522 lung it was 0.0353 µM. Also, the GI50 is 1.97 µM in the assay on SK-MEL-28 melanoma and 0.159 µM in the assay on SN12C renal. Also, the TGI is above 59.7 µM with CCRF-CEM leukemia; 3.43 µM in the assay on HCT-116 colon; 12.9 µM in the assay on HOP-62 NSCLC; 11.1 µM with KM12 colon; 3.9 µM in the assay on NCI-H226 lung; 1.49 µM in the assay with NCI-H522 lung. Also, the TGI in the assay on SK-MEL-28 melanoma stood at 20.7 µM; in the assay on SN12C renal, 11.7 µM.

On to `COCCOCCOCc1n(Cc2ccc3ccccc3n2)c2ccccc2[n+]1Cc1ccc2ccccc2n1`, for which the GI50 was 1.78 µM in the assay with CCRF-CEM leukemia; 1.26 µM in the assay on HCT-116 colon; 2.44 µM with HOP-62 NSCLC; 0.502 µM with KM12 colon; 2.44 µM with NCI-H226 lung; 0.415 µM with NCI-H522 lung. Also, the GI50 is 0.759 µM with SK-MEL-28 melanoma and 0.306 µM in the assay with SN12C renal. Moreover, the TGI in the assay with CCRF-CEM leukemia is 16 µM; with HCT-116 colon, 11.7 µM; in the assay with HOP-62 NSCLC, 14.3 µM; in the assay with KM12 colon, 6.13 µM; in the assay on NCI-H226 lung, 18.4 µM; with NCI-H522 lung it was 11.1 µM. The TGI in the assay on SK-MEL-28 melanoma worked out at 14.5 µM; with SN12C renal it was 11.1 µM.

As to `Cc1cc(O)c(C2=NN(c3ccc(S(N)(=O)=O)cc3)C(/C=C/c3ccccc3)C2)cc1Cl` (centres undefined), the GI50 in the assay on CCRF-CEM leukemia is 17.7 µM; in the assay on HCT-116 colon it was 2.4 µM; in the assay on HOP-62 NSCLC, 3.94 µM; in the assay with KM12 colon it was 11.7 µM; in the assay on NCI-H226 lung it was 5.21 µM; in the assay on NCI-H522 lung it was 4.62 µM. Besides, the results for the GI50 in the assay with SK-MEL-28 melanoma and in the assay on SN12C renal were 10.9 µM and 11.1 µM, respectively. Further, the TGI in the assay with CCRF-CEM leukemia worked out at 50 µM; with HCT-116 colon, 14.6 µM; in the assay with HOP-62 NSCLC, 14.1 µM; in the assay on KM12 colon, 34.8 µM; with NCI-H226 lung it was 19.2 µM; in the assay on NCI-H522 lung, 19.4 µM. In addition, the TGI with SK-MEL-28 melanoma came to 23.8 µM; with SN12C renal, 25.6 µM.

Turning to `COC(=O)Cc1cc(=O)[nH]c2c1C(=O)CCC2`, the TGI with CCRF-CEM leukemia, with KM12 colon, with NCI-H226 lung, with NCI-H522 lung, with SK-MEL-28 melanoma and in the assay with SN12C renal was above 100 µM throughout.

On to `O=Cc1ccc(-c2ccc(-c3nc4ccccc4s3)cc2)s1`, for which the GI50 with CCRF-CEM leukemia is 26.5 µM; in the assay on HCT-116 colon it was 35.3 µM; in the assay with HOP-62 NSCLC, above 100 µM; in the assay on KM12 colon, 38.4 µM; in the assay on NCI-H226 lung, 66.1 µM; in the assay on NCI-H522 lung it was 69.1 µM. Further, the GI50 with SK-MEL-28 melanoma is above 100 µM. Besides, the TGI with CCRF-CEM leukemia is 90.7 µM; with HCT-116 colon it was above 100 µM; in the assay with HOP-62 NSCLC it was above 100 µM; with KM12 colon, above 100 µM; in the assay on NCI-H226 lung it was above 100 µM; with NCI-H522 lung, above 100 µM. The TGI with SK-MEL-28 melanoma was above 100 µM.

`C/C(=N\NC(=S)N1CCCCCC1)c1cccc2cccnc12`: the TGI in the assay with CCRF-CEM leukemia was above 100 µM; in the assay on HCT-116 colon it was above 67.1 µM; with HOP-62 NSCLC, above 70.7 µM; with KM12 colon, above 87.4 µM; in the assay with NCI-H522 lung, above 100 µM; in the assay on SK-MEL-28 melanoma it was above 66.4 µM.

`COc1cc(C)c2sc3ccccc3c(=O)c2c1NCCN(C)C`: the GI50 is 3.73 µM in the assay with HCT-116 colon; 7.1 µM with HOP-62 NSCLC; 5.22 µM in the assay with KM12 colon; 2.3 µM in the assay with NCI-H226 lung; 4.91 µM with NCI-H522 lung; 1.83 µM with SK-MEL-28 melanoma. Further, the GI50 in the assay with SN12C renal was 5.41 µM. Also, the TGI is 13.6 µM in the assay with HCT-116 colon; 19.6 µM in the assay with HOP-62 NSCLC; 18.9 µM in the assay on KM12 colon; 6.81 µM in the assay with NCI-H226 lung; 17.9 µM in the assay with NCI-H522 lung; 3.42 µM in the assay with SK-MEL-28 melanoma. The compound also showed a TGI in the assay on SN12C renal of 20 µM.

As for `CN1CCN(c2nc(-c3csc(-c4cccs4)n3)cc3ccccc23)CC1`, the GI50 in the assay on CCRF-CEM leukemia was 2 µM; in the assay on HCT-116 colon, 1.76 µM; with HOP-62 NSCLC it was 1.81 µM; with KM12 colon it was 1.84 µM; in the assay on NCI-H522 lung, 1.94 µM; in the assay with SK-MEL-28 melanoma, 1.77 µM. For the same compound, the GI50 in the assay with SN12C renal was 1.81 µM. The TGI in the assay on CCRF-CEM leukemia was determined as 4.46 µM; in the assay with HCT-116 colon, 3.36 µM; with HOP-62 NSCLC, 3.67 µM; in the assay with KM12 colon, 3.39 µM; in the assay with NCI-H522 lung, 3.95 µM; with SK-MEL-28 melanoma, 3.24 µM. The same compound came in with a TGI with SN12C renal of 3.47 µM.

In the case of `CCCCNc1ccc(Nc2ccccc2)cc1`, the GI50 with CCRF-CEM leukemia is 2.93 µM; in the assay on HCT-116 colon, 2.97 µM; in the assay on HOP-62 NSCLC, 14.4 µM; in the assay with KM12 colon, 4.02 µM; with NCI-H226 lung, 12.5 µM; in the assay on SK-MEL-28 melanoma it was 10.4 µM. Besides, the GI50 with SN12C renal was 6.28 µM. Also, the TGI with CCRF-CEM leukemia was above 100 µM; in the assay with HCT-116 colon, 22.7 µM; with HOP-62 NSCLC, 71.4 µM; with KM12 colon it was 32.6 µM; in the assay with NCI-H226 lung it was above 100 µM; in the assay with SK-MEL-28 melanoma, 60.2 µM. For the same compound, in the assay on SN12C renal, the TGI is above 100 µM.

Take `Cl.Fc1c[c-]c(-c2ccccn2)c(F)c1.[Pt].c1ccc([PH+](C[PH+](c2ccccc2)c2ccccc2)c2ccccc2)cc1`: in the assay on KM12 colon, the GI50 is 0.276 µM and the TGI stood at 1 µM. Further, in the assay with SK-MEL-28 melanoma, the GI50 is 0.231 µM and the TGI was determined as 0.706 µM.

Turning to `COc1c(N2CCN(CN3C(=O)C(=O)c4cc(Cl)ccc43)C(C)C2)c(F)cc2c(=O)c(C(=O)O)cn(C3CC3)c12` (centres undefined), the GI50 in the assay with HCT-116 colon was 29.8 µM; in the assay on KM12 colon, 35.2 µM; in the assay with NCI-H226 lung, 71 µM; in the assay with NCI-H522 lung it was above 100 µM; in the assay on SK-MEL-28 melanoma it was 97.5 µM; with SN12C renal it was 48.2 µM. The TGI with HCT-116 colon, in the assay with KM12 colon, with NCI-H226 lung, in the assay on NCI-H522 lung, with SK-MEL-28 melanoma and with SN12C renal was above 100 µM in each case.
